For the data set, the system named is Artemia salina. As to the kind of experiment: Toxicity against Artemia salina at 30 ppm. The class given is organism-based. To be noted: in vivo.

As for `C=C1CC[C@H](C(C)C)[C@@H]2[C@H]1[C@@H]1CC(=C)[C@@H](O)CC[C@](C)(O)[C@H]2O1` [CLADIELLISIN], the Activity result is “Not Active”.

These data come from ChEMBL document CHEMBL1145699, “Bioactive Terpenoids from Octocorallia. 3. A New Eunicellin-Based Diterpenoid from the Soft Coral Cladiella sphaeroides” (J Nat Prod, 1997).
